Experiment [1] addresses T1, AURKA (Homo sapiens, UniProt O14965).
T1 construct: endogenous in cells; host or cells: Jurkat cells
T1 sequence (O14965 1-403): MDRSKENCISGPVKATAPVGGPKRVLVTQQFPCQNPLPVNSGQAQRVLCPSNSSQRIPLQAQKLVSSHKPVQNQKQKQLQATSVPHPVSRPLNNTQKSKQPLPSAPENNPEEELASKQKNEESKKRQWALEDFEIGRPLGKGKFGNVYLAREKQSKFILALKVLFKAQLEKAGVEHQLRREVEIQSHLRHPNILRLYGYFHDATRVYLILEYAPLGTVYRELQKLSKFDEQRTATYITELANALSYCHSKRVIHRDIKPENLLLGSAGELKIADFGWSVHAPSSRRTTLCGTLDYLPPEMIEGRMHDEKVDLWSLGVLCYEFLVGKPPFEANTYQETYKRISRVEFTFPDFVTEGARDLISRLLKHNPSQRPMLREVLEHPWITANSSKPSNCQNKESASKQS
In kind it is cell-based. The method, boiled down:
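AURKA degradation read by western blot: band signal, fluorescent or chemiluminescent, curve-fitted to derive DC50. Cells were Jurkat, plated at 1×10^6 cells/500 µL with compound, then lysed and blotted onto nitrocellulose, primary antibody overnight at 4°C.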

In experiment [2] the test system is H82 cells. The experiment in a line: cells. In kind it is cell-based. As to conditions: Homo sapiens. The method, boiled down: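 After 6 days' compound treatment at 37 °C (final DMSO 0.1%, RPMI1640/10% FBS), viable H82 cells were quantified by ATP-dependent CellTiter-Glo luminescence. Remaining activity was calculated against DMSO and medium wells, and a sigmoidal fit gave IC50.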

Where [3] appears, read: 100 nM compound, Jurkat cells, 24 h, Table 2.
Setting [4] is: 1 µM compound, Jurkat cells, 24 h, Table 2.
Setting [5] is: NCI-H82, H82 cells, 4000 cells/well, CellTiter-Glo, read-out: IC50 in H82 Cells.
The mark [6] stands for this setting: NCI-H82, read-out: IC50 in H82 Cells.

Each structure is given as a SMILES string. Where two headings read alike, the source gives them in different places.

The record followed here is patent publication EP4818168A1, “FUSED RING COMPOUND, PHARMACEUTICAL COMPOSITION THEREOF AND USE THEREOF” (priority 2023, dated 2025).

On to `O=C1CCN(c2ccc(N3CCC(CN4CC(=O)N(C56CC(Nc7ncc8c(n7)-c7ccc(Cl)cc7C(c7c(F)cccc7F)=NC8)(C5)C6)C(=O)C4)CC3)nc2)C(=O)N1` [Compound A283], for which the “Percentage of AURKA Degradation Induced by 100 nM Compound in Jurkat Cells” value (“Percentage … by 100 nM Compound in Jurkat Cells” for short) in experiment [1] (setting [3]) is “+++ (Degradation > 70%)”. Further, the “Percentage of AURKA Degradation Induced by 1 µM Compound in Jurkat Cells” value (from here on “Percentage … by 1 µM Compound in Jurkat Cells”) in experiment [1] (setting [4]) was “+++ (Degradation > 70%)”. The IC50 in experiment [2] (setting [5]) is less than 1 µM.
Regarding `O=C1CCN(c2ccc(N3CCN(C(=O)C4CCN(C56CC(Nc7ncc8c(n7)-c7ccc(Cl)cc7C(c7c(F)cccc7F)=NC8)(C5)C6)C(=O)C4)CC3)nc2)C(=O)N1` (stereo not drawn) [Compound A284], the “Percentage … by 100 nM Compound in Jurkat Cells” value in experiment [1] (setting [3]) was “+++ (Degradation > 70%)”. In addition, the “Percentage … by 1 µM Compound in Jurkat Cells” value in experiment [1] (setting [4]) is reported as “++ (30% < Degradation ≤ 70%)”. Further, the half-maximal inhibitory concentration (IC50) in experiment [2] (setting [5]) is less than 1 µM.
Turning to `O=C1CCN(c2ccc(N3CCOC(C(=O)N4CCN(c5ccc(Nc6ncc7c(n6)-c6ccc(Cl)cc6C(c6c(F)cccc6F)=NC7)cc5)CC4)C3)nc2)C(=O)N1` (stereo not drawn) [Compound A285], the “Percentage … by 100 nM Compound in Jurkat Cells” value in experiment [1] (setting [3]) was “+++ (Degradation > 70%)”. Further, the “Percentage … by 1 µM Compound in Jurkat Cells” value in experiment [1] (setting [4]) is listed as “+++ (Degradation > 70%)”. Also, the IC50 in experiment [2] (setting [5]) is less than 1 µM.
As to `O=C1CCN(c2cnc(N3CCN(CC4(F)CN(c5ccc(Nc6ncc7c(n6)-c6ccc(Cl)cc6C(c6c(F)cccc6F)=NC7)cc5)C4)CC3)nc2)C(=O)N1` [Compound A286], the “Percentage … by 100 nM Compound in Jurkat Cells” value in experiment [1] (setting [3]) is recorded as “++ (30% < Degradation ≤ 70%)”. Moreover, the “Percentage … by 1 µM Compound in Jurkat Cells” value in experiment [1] (setting [4]) was “++ (30% < Degradation ≤ 70%)”. Further, in experiment [2] (setting [5]), the IC50 is less than 1 µM.
Regarding `CP(C)(=O)c1cc(N2CCC(=O)NC2=O)ccc1N1CCN(C(=O)C2CCN(c3ccc(Nc4ncc5c(n4)-c4ccc(Cl)cc4C(c4c(F)cccc4F)=NC5)cc3)CC2)CC1` [Compound A287], the “Percentage … by 100 nM Compound in Jurkat Cells” value in experiment [1] (setting [3]) is “+ (Degradation ≤ 30%)”. In addition, the “Percentage … by 1 µM Compound in Jurkat Cells” value in experiment [1] (setting [4]) is “+ (Degradation ≤ 30%)”. The IC50 in experiment [2] (setting [5]) was less than 1 µM.
For `CP(C)(=O)c1cc(N2CCN(C(=O)C3CCN(c4ccc(Nc5ncc6c(n5)-c5ccc(Cl)cc5C(c5c(F)cccc5F)=NC6)cc4)CC3)CC2)ccc1N1CCC(=O)NC1=O` [Compound A288], the “Percentage … by 100 nM Compound in Jurkat Cells” value in experiment [1] (setting [3]) is reported as “+ (Degradation ≤ 30%)”. For the same compound, the “Percentage … by 1 µM Compound in Jurkat Cells” value in experiment [1] (setting [4]) is given as “+ (Degradation ≤ 30%)”. In addition, the IC50 in experiment [2] (setting [5]) was less than 1 µM.
Regarding `O=C1CCN(c2ccc(N3CCC(O)(CN4CCN(C56CC(Nc7ncc8c(n7)-c7ccc(Cl)cc7C(c7c(F)cccc7F)=NC8)(C5)C6)C(=O)C4)CC3)nc2)C(=O)N1` [Compound A290], in experiment [1], the “Percentage … by 100 nM Compound in Jurkat Cells” value is given as “++ (key: +: Degradation ≤ 30%; ++: 30% < Degradation ≤ 70%; +++: Degradation > 70%)” and the “Percentage … by 1 µM Compound in Jurkat Cells” value was “+++ (key: +: Degradation ≤ 30%; ++: 30% < Degradation ≤ 70%; +++: Degradation > 70%)”. Moreover, in experiment [2] (setting [6]), the IC50 was less than 1 µM.
Turning to `O=C1CCN(c2ccc(N3CCN(CC4(F)CN(c5ccc(Nc6ncc7c(n6)-c6ccc(Cl)cc6C(c6nccs6)=NC7)cc5)C4)CC3)nc2)C(=O)N1` [Compound A291], in experiment [1] (setting [3]), the “Percentage … by 100 nM Compound in Jurkat Cells” value is recorded as “+++ (Degradation > 70%)”. Also, in experiment [1] (setting [4]), the “Percentage … by 1 µM Compound in Jurkat Cells” value was “+++ (Degradation > 70%)”. For the same compound, the IC50 in experiment [2] (setting [5]) is less than 1 µM.
In the case of `O=C1CCN(c2ccc(N3CC(C(=O)N4CCN(c5ccc(Nc6ncc7c(n6)-c6ccc(Cl)cc6C(c6nccs6)=NC7)cc5)CC4)C3)nc2)C(=O)N1` [Compound A292], in experiment [1] (setting [3]), the “Percentage … by 100 nM Compound in Jurkat Cells” value is reported as “+++ (Degradation > 70%)”. The “Percentage … by 1 µM Compound in Jurkat Cells” value in experiment [1] (setting [4]) is given as “+++ (Degradation > 70%)”. Moreover, the IC50 in experiment [2] (setting [5]) is less than 1 µM.
Consider `O=C1CCN(c2ccc(N3CCC(C4CN(C(=O)C56CC(Nc7ncc8c(n7)-c7ccc(Cl)cc7C(c7c(F)cccc7F)=NC8)(C5)C6)C4)CC3)nc2)C(=O)N1` [Compound A293], for which the “Percentage … by 100 nM Compound in Jurkat Cells” value in experiment [1] (setting [3]) is on record as “+++ (Degradation > 70%)”. Further, the “Percentage … by 1 µM Compound in Jurkat Cells” value in experiment [1] (setting [4]) is recorded as “+++ (Degradation > 70%)”. For the same compound, the IC50 in experiment [2] (setting [5]) is less than 1 µM.
With `O=C1CCN(c2ccc(N3CCC(F)(CN4CC(=O)N(C56CC(Nc7ncc8c(n7)-c7ccc(Cl)cc7C(c7c(F)cccc7F)=NC8)(C5)C6)C(=O)C4)CC3)nc2)C(=O)N1` [Compound A294], the “Percentage … by 100 nM Compound in Jurkat Cells” value in experiment [1] (setting [3]) is reported as “++ (30% < Degradation ≤ 70%)”. The “Percentage … by 1 µM Compound in Jurkat Cells” value in experiment [1] (setting [4]) was “++ (30% < Degradation ≤ 70%)”. Moreover, the IC50 in experiment [2] (setting [5]) is less than 1 µM.
Regarding `N#Cc1cc(N2CCC(=O)NC2=O)ccc1N1CCN(C(=O)C2CCN(c3ccc(Nc4ncc5c(n4)-c4ccc(Cl)cc4C(c4c(F)cccc4F)=NC5)cc3)CC2)CC1` [Compound A296], the “Percentage … by 100 nM Compound in Jurkat Cells” value in experiment [1] (setting [3]) is listed as “+++ (Degradation > 70%)”. Moreover, the “Percentage … by 1 µM Compound in Jurkat Cells” value in experiment [1] (setting [4]) is on record as “+++ (Degradation > 70%)”. Also, in experiment [2] (setting [5]), the IC50 was less than 1 µM.
Turning to `O=C1CCN(c2ccc(N3CC(C4CCN(C(=O)C56CC(Nc7ncc8c(n7)-c7ccc(Cl)cc7C(c7c(F)cccc7F)=NC8)(C5)C6)CC4)C3)nc2)C(=O)N1` [Compound A297], the “Percentage … by 100 nM Compound in Jurkat Cells” value in experiment [1] (setting [3]) is recorded as “+++ (Degradation > 70%)”. Further, the “Percentage … by 1 µM Compound in Jurkat Cells” value in experiment [1] (setting [4]) is “+++ (Degradation > 70%)”. In addition, in experiment [2] (setting [5]), the IC50 is less than 1 µM.
As for `O=C1CCN(c2ccc(N3CC4(CC(N5CCN(C67CC(Nc8ncc9c(n8)-c8ccc(Cl)cc8C(c8c(F)cccc8F)=NC9)(C6)C7)C(=O)C5)C4)C3)nc2)C(=O)N1` [Compound A298], the “Percentage … by 100 nM Compound in Jurkat Cells” value in experiment [1] (setting [3]) is “+++ (Degradation > 70%)”. Also, the “Percentage … by 1 µM Compound in Jurkat Cells” value in experiment [1] (setting [4]) was “+++ (Degradation > 70%)”. Further, in experiment [2] (setting [5]), the concentration for half-maximal inhibition (IC50) was less than 1 µM.
On to `O=C1CCN(c2ccc(N3CC(O)(CN4CCN(c5ccc(Nc6ncc7c(n6)-c6ccc(Cl)cc6C(c6c(F)cccc6F)=NC7)cc5)C(=O)C4)C3)nc2)C(=O)N1` [Compound A299], for which, in experiment [1], the “Percentage … by 100 nM Compound in Jurkat Cells” value is on record as “+++ (key: +: Degradation ≤ 30%; ++: 30% < Degradation ≤ 70%; +++: Degradation > 70%)” and the “Percentage … by 1 µM Compound in Jurkat Cells” value is on record as “+++ (key: +: Degradation ≤ 30%; ++: 30% < Degradation ≤ 70%; +++: Degradation > 70%)”. Also, in experiment [2] (setting [6]), the IC50 was less than 1 µM.
Consider `O=C1CCN(c2ccc(N3CCC(O)(CN4CCN(c5ccc(Nc6ncc7c(n6)-c6ccc(Cl)cc6C(c6c(F)cccc6F)=NC7)cc5)C(=O)C4)CC3)nc2)C(=O)N1` [Compound A300], for which, in experiment [1], the “Percentage … by 100 nM Compound in Jurkat Cells” value was “+++ (key: +: Degradation ≤ 30%; ++: 30% < Degradation ≤ 70%; +++: Degradation > 70%)” and the “Percentage … by 1 µM Compound in Jurkat Cells” value was “+++ (key: +: Degradation ≤ 30%; ++: 30% < Degradation ≤ 70%; +++: Degradation > 70%)”. Moreover, the IC50 in experiment [2] (setting [6]) was less than 1 µM.
Turning to `CC(C1CCN(c2ccc(N3CCC(=O)NC3=O)cn2)CC1)N1CCN(C23CC(Nc4ncc5c(n4)-c4ccc(Cl)cc4C(c4c(F)cccc4F)=NC5)(C2)C3)C(=O)C1` (stereo not drawn) [Compound A302], the “Percentage … by 100 nM Compound in Jurkat Cells” value in experiment [1] (setting [3]) was “+++ (Degradation > 70%)”. Moreover, in experiment [1] (setting [4]), the “Percentage … by 1 µM Compound in Jurkat Cells” value was “+++ (Degradation > 70%)”. Moreover, in experiment [2] (setting [5]), the IC50 was less than 1 µM.
Consider `CP(C)(=O)c1cc(Nc2ncc3c(n2)-c2ccc(Cl)cc2C(c2c(F)cccc2F)=NC3)ccc1N1CCN(C2CCN(c3ccc(N4CCC(=O)NC4=O)cn3)CC2)CC1=O` [Compound A303], for which the “Percentage … by 100 nM Compound in Jurkat Cells” value in experiment [1] (setting [3]) is listed as “+++ (Degradation > 70%)”. In experiment [1] (setting [4]), the “Percentage … by 1 µM Compound in Jurkat Cells” value is “+++ (Degradation > 70%)”. In experiment [2] (setting [5]), the concentration for half-maximal inhibition (IC50) is less than 1 µM.

The term IC50 denotes the concentration that gives 50% inhibition.
